For this experiment, the target named is T1, binding between NRF2 and KEAP1 (biotinylated human KEAP1 protein (Kelch domain), TAMRA-labeled NRF2 peptide) (Homo sapiens, UniProt Q14145).
T1 construct: biotinylated human KEAP1 protein (Kelch domain); biotin (biotinylated)
Briefly: Measurement of activity of inhibiting NRF2 binding (NRF2-KEAP1 TR-FRET). The following applies: for inhibition at 0.1 µM: read-out: NRF2 binding inhibitory activity (at 100 nM). On the procedure:
Test Example 1: Measurement of Activity of Inhibiting NRF2 Binding
The inhibitory activity of test compounds against the binding between NRF2 and KEAP1 was measured by Time Resolved Fluorescence Resonance Energy Transfer (TR-FRET) method. Into a 384 well plate, 2 μL of a compound, 2 μL of 2 nM solution of biotinylated human KEAP1 protein (Kelch domain), 2 μL of 14 nM solution of TAMRA-labeled NRF2 peptide (TAMRA-Abu(4)-VWYTDIRMRDWM-OH), and 2 μL of 2 nM solution of Tb-labeled streptavidin, all solutions diluted with assay buffer (25 mM HEPES, pH7.5, 150 mM NaCl, 0.01% Tween-20), were added. For some wells, the KEAP1 protein was not added to define control wells. The plate was incubated at room temperature for 60 minutes, and time-resolved fluorescence was measured with a plate reader Envision (manufactured by PerkinElmer). The inhibitory activity for each compound at a compound concentration of 100 nM were calculated as a relative activity value by setting the fluorescence intensity of control wells to which the KEAP1 protein was not added as 100% inhibition, and the fluorescence intensity of wells to which no compound was added as 0%.
The measurement results according to the method described above (inhibition rate of signal value relative to control at 100 nM of test compound) are shown in Table 3.
Background: In TR-FRET formats the signal depends on donor and acceptor labels being close together.

[1] abbreviates: inhibition rate relative to control at 100 nM test compound, TR-FRET, 60 min at room temperature.
Where [2] appears, read: inhibition rate relative to control at 100 nM test compound, TR-FRET, 60 min at room temperature, 0.1 µM.

The values below come from patent US11518763B2 (SCOHIA PHARMA, INC., priority 2018, dated 2022).

Read-outs that look alike come from different tables or passages of the source.

T1 sequence (Q14145 321-609 limits assumed): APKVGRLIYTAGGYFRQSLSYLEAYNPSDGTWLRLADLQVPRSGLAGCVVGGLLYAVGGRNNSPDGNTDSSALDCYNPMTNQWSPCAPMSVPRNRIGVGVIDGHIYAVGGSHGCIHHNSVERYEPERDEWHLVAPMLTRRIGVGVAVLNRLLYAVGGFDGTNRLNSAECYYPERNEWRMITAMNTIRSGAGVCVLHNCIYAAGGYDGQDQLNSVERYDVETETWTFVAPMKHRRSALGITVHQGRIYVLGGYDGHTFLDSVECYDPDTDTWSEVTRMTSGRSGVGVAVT

Take `Cc1c2ccc3c1nnn3CCCOCc1ccc(c(C3CC3)c1)C(=O)N1CCc3ccc(cc3C1)C2CC(=O)O` (racemic) [Example 19, [18-Cyclopropyl-32-methyl-20-oxo-14-oxa-8,9,10,21-tetraazahexacyclo[19.5.3.2^16,19.1^3,8.0^6,10.0^24,28]dotriaconta-1(26),3(32),4,6,8,16,18,24,27,30-decaen-2-yl]acetic acid]: under setting [1], the inhibition at 0.1 µM is 100%.
For `Cc1c2ccc3c1nnn3CCCCCc1ccc(cc1)C(=O)N1CCc3ccc(cc3C1)C2C(C)C(=O)O` (centres unmarked) [Example 6, 2-[32-Methyl-20-oxo-8,9,10,21-tetraazahexacyclo[19.5.3.2^16,19.1^3,7.0^6,10.0^24,28]dotriaconta-1(26),3(32),4,6,8,16,18,24,27,30-decaen-2-yl]propanoic acid], under setting [1], the inhibition at 0.1 µM turned out to be 100%.
On the same count and under the same terms, to `Cc1c2ccc3c1nnn3CCCOCc1ccc(c(Cl)c1)C(=O)N1CCc3ccc(cc3C1)C2CC(=O)O` (racemic) [Example 24, [18-Chloro-32-methyl-20-oxo-14-oxa-8,9,10,21-tetraazahexacyclo[19.5.3.2^16,19.1^3,7.0^6,10.0^24,28]dotriaconta-1(26),3(32),4,6,8,16,18,24,27,30-decaen-2-yl]acetic acid] belongs 100%; to `Cc1c2ccc3c1nnn3CCCCCc1ccc(cc1)C(=O)N1CCc3ccc(cc3C1)C2CC(=O)O` (racemic) [Example 1, [32-Methyl-20-oxo-8,9,10,21-tetraazahexacyclo[19.5.3.2^16,19.1^3,7.0^6,10.0^24,28]dotriaconta-1(26),3(32),4,6,8,16,18,24,27,30-decaen-2-yl]acetic acid], 100%; to `Cc1c2ccc3c1nnn3CCCOCc1ccc(cc1)C(=O)N1CCc3ccc(cc3C1)C2CC(=O)O` (racemic) [Example 16, [32-Methyl-20-oxo-14-oxa-8,9,10,21-tetraazahexacyclo[19.5.3.2^16,19.1^3,7.0^6,10.0^24,28]dotriaconta-1(26),3(32),4,6,8,16,18,24,27,30-decaen-2-yl]acetic acid], 100%.
`Cc1cc2cc(C)c1C(=O)N1CCc3ccc(cc3C1)C(CC(=O)O)c1ccc3c(nnn3CCCOC2)c1C` (centres unmarked) [Example 68, [18,30,32-trimethyl-20-oxo-14-oxa-8,9,10,21-tetrazahexacyclo[19.5.3.2^16,19.1^3,7.0^6,10.0^24,28]dotriaconta-1(27),3(32),4,6,8,16,18,24(28),25,30-decaen-2-yl]acetic acid]: the “NRF2 binding inhibitory activity (at 100 nM)” value under setting [2] is reported as 93%.
Consider `Cc1oc(=O)oc1COC(=O)CC1c2ccc3c(c2)CN(CC3)C(=O)c2ccc(cc2)CCCCCn2nnc3c(C)c1ccc32` (centres unmarked) [Example 35, (5-Methyl-2-oxo-2H-1,3-dioxol-4-yl)methyl [32-methyl-20-oxo-8,9,10,21-tetraazahexacyclo[19.5.3.2^16,19.1^3,7.0^6,10.0^24,28]dotriaconta-1(26),3(32),4,6,8,16,18,24,27,30-decaen-2-yl]acetate], for which, under setting [1], the inhibition at 0.1 µM amounted to 99%.
The same measure, in the same setting: to `Cc1cc2cc(C)c1C(=O)N1CCc3ccc(cc3C1)C(CC(=O)O)c1ccc3c(nnn3CCCOC2)c1C` (centres unmarked) [Example 67, [18,30,32-trimethyl-20-oxo-14-oxa-8,9,10,21-tetrazahexacyclo[19.5.3.2^16,19.1^3,7.0^6,10.0^24,28]dotriaconta-1(27),3(32),4,6,8,16,18,24(28),25,30-decaen-2-yl]acetic acid] belongs 99%; to `Cc1c2ccc3c1nnn3CCCCCc1cc(Cl)c(c(Cl)c1)C(=O)N1CCc3ccc(cc3C1)C2C(C)(C)C(=O)O` (racemic) [Example 57, 2-[18,30-dichloro-32-methyl-20-oxo-8,9,10,21-tetrazahexacyclo[19.5.3.2^16,19.1^3,7.0^6,10.0^24,28]dotriaconta-1(26),3(32),4,6,8,16,18,24,27,30-decaen-2-yl]-2-methylpropanoic acid], 100%; to `Cc1c2ccc3c1nnn3CCCCc1ccc(cc1)C(=O)N1CCc3ccc(cc3C1)C2CC(=O)O` (racemic) [Example 13, [31-Methyl-19-oxo-8,9,10,20-tetraazahexacyclo[18.5.3.2^15,18.1^3,7.0^6,10.0^23,27]hentriaconta-1(25),3(31),4,6,8,15,17,23,26,29-decaen-2-yl]acetic acid], 99%.
For the compound `Cc1c2ccc3c1nnn3CCCCOc1cc(Cl)c(c(Cl)c1)C(=O)N1CCc3ccc(cc3C1)C2C(C)(C)C(=O)O` (centres unmarked) [Example 66, 2-[18,30-dichloro-32-methyl-20-oxo-15-oxa-8,9,10,21-tetrazahexacyclo[19.5.3.2^16,19.1^3,7.0^6,10.0^24,28]dotriaconta-1(27),3(32),4,6,8,16(31),17,19(30),24(28),25-decaen-2-yl]-2-methylpropanoic acid], the “NRF2 binding inhibitory activity (at 100 nM)” value under setting [2] is given as 94%.
On to `Cc1cc2ccc1C(=O)N1CCc3ccc(cc3C1)C(CC(=O)O)c1ccc3c(nnn3CCCOC2)c1C` (racemic) [Example 17, [18,32-Dimethyl-20-oxo-14-oxa-8,9,10,21-tetraazahexacyclo[19.5.3.2^16,19.1^3,7.0^6,10.0^24,28]dotriaconta-1(26),3(32),4,6,8,16,18,24,27,30-decaen-2-yl]acetic acid], for which the inhibition at 0.1 µM under setting [1] worked out at 100%.
Same read-out and setting: the result for `CCOC(=O)CC1c2ccc3c(c2)CN(CC3)C(=O)c2ccc(cc2)COCCCn2nnc3c(C)c1ccc32` (racemic) [Example 27, Ethyl [32-methyl-20-oxo-14-oxa-8,9,10,21-tetraazahexacyclo[19.5.3.2^16,19.1^3,7.0^6,10.0^24,28]dotriaconta-1(26),3(32),4,6,8,16,18,24,27,30-decaen-2-yl]acetate] reads 6%.
Turning to `Cc1c2ccc3c1nnn3CCCOCc1ccc(cc1)C(=O)N1CCc3ccc(cc3C1)C2CC(=O)O` (centres unmarked) [Example 41, Sodium [32-methyl-20-oxo-14-oxa-8,9,10,21-tetraazahexacyclo[19.5.3.2^16,19.1^3.7.0^6,10.0^24,28]dotriaconta-1(26),3(32),4,6,8,16,18,24,27,30-decaen-2-yl]acetate], the inhibition at 0.1 µM is 100%.
Take `CCc1cc2ccc1C(=O)N1CCc3ccc(cc3C1)C(CC(=O)O)c1ccc3c(nnn3CCCOC2)c1C` (racemic) [Example 18, [18-Ethyl-32-methyl-20-oxo-14-oxa-8,9,10,21-tetraazahexacyclo[19.5.3.2^16,19.1^3,7.0^6,10.0^24,28]dotriaconta-1(26),3(32),4,6,8,16,18,24,27,30-decaen-2-yl]acetic acid]: under setting [1], the inhibition at 0.1 µM came out at 100%.
Still for that read-out and setting: to `Cc1c2ccc3c1nnn3CCCOCc1ccc(cc1)C(=O)N1CCc3ccc(cc3C1)C2CC(=O)OC(C)OC(=O)OC1CCCCC1` (centres unmarked) [Example 40, 1-{[(Cyclohexyloxy)carbonyl]oxy}ethyl[32-methyl-20-oxo-14-oxa-8,9,10,21-tetraazahexacyclo[19.5.3.2^16,19.1^3,7.0^6,10.0^24,28]dotriaconta-1(26),3(32),4,6,8,16,18,24,27,30-decaen-2-yl]acetate] belongs 82%.
`Cc1c2ccc3c1nnn3CCCCCc1ccc(cc1)C(=O)N1CCc3ccc(cc3C1)C2CC(=O)O` (centres unmarked) [Example 12, [32-Methyl-20-oxo-8,9,10,21-tetraazahexacyclo[19.5.3.2^16,19.0^3,7.0^6,10.0^24,28]dotriaconta-1(26),3(32),4,6,8,16,18,24,27,30-decaen-2-yl]acetic acid]: the “NRF2 binding inhibitory activity (at 100 nM)” value under setting [1] is recorded as 100%.
